Experimental data from patent publication US10167279B2 (NOVARTIS AG, priority 2014, dated 2019).

Target: C-Raf FL (Homo sapiens (Human), UniProt P04049, Y340E/Y341E)
Test: In vitro Raf activity determination (Alpha Screen, phospho-MEK), C-Raf FL (full length, Y340E/Y341E)
Type: biochemical
Conditions: ATP 1 μM; 60 min pre-incubation; 1 hour reaction; column head does not say FL or TR
Excerpt: The activity of a compound according to the present invention can be assessed by well-known in vitro & in vivo methods. Raf inhibition data provided herein was obtained using the following procedures.
Sf9 cells co-expressing both proteins were lysed and subjected to immobilized nickel chromatography and eluted with Imidazole. A second column (StrepII binding column) was used and eluted with desthiobiotin. Protein Tags were removed using Prescission enzyme and the protein was further purified using a flowthrough step to remove tags.
C-Raf TR refers to a truncated C-Raf protein, a Δ1-324 deletion mutant. C-Raf FL refers to the full-length C-Raf protein.
Full length MEK1 with an inactivating K97R ATP binding site mutation is utilized as a RAF substrate. The MEK1 cDNA was subcloned with an N-terminal (his)6 tag into a vector for E. Coli expression. The MEK1 substrate was purified from E. Coli lysate by nickel affinity chromatography followed by anion exchange. The final MEK1 preparation was biotinylated (Pierce EZ-Link Sulfo-NHS-LC-Biotin) and concentrated.
Assay protocol: Raf and biotinylated Mek (kinase dead) were combined at 2× final concentrations in assay buffer (50 mM Tris, pH 7.5, 15 mM MgCl2, 0.01% BSA and 1 mM DTT) and dispensed […] per well in assay plates (Greiner white 384 well assay plates #781207) containing […] of 40× of a Raf kinase inhibitor test compound diluted in 100% DMSO. The plate was incubated for 60 minutes at room temperature. […] The reactions were stopped and the phosphorylated product was measured using a rabbit anti-p-MEK (Cell Signaling, #9121) antibody and the Alpha Screen IgG (ProteinA) detection Kit (PerkinElmer #6760617R), by the addition of […] to the well of a mixture of the antibody (1:2000 dilution) and detection beads (1:2000 dilution of both beads) in Stop/bead buffer (25 mM EDTA, 50 mM Tris, pH 7.5, 0.01% Tween20). The additions were carried out under dark conditions to protect the detection beads from light. A lid was placed on top of the plate and incubated for 1 hour at room temperature, after which the luminescence was read on a PerkinElmer Envision instrument. The concentration of each compound for 50% inhibition (IC50) was calculated by non-linear regression using XL Fit data analysis software.

Sequence of C-Raf FL (P04049 whole entry Y340E/Y341E): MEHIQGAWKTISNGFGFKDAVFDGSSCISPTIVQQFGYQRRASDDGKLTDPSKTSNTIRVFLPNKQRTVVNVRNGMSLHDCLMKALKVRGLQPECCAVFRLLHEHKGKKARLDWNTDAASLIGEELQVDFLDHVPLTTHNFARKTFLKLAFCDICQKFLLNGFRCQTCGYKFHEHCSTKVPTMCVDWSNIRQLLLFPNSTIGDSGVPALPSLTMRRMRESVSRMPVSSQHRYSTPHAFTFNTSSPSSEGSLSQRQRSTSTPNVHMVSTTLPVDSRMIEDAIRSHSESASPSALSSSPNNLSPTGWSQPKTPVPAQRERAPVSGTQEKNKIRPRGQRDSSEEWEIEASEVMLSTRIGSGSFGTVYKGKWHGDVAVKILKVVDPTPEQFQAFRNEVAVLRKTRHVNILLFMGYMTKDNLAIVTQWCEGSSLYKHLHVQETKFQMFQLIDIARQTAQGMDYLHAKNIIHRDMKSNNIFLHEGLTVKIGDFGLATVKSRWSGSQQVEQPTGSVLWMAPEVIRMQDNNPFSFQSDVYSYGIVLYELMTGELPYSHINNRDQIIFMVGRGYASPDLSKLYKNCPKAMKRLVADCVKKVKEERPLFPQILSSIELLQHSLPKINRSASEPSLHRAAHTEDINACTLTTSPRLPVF
Sequence of C-Raf FL (P63104 whole entry partner): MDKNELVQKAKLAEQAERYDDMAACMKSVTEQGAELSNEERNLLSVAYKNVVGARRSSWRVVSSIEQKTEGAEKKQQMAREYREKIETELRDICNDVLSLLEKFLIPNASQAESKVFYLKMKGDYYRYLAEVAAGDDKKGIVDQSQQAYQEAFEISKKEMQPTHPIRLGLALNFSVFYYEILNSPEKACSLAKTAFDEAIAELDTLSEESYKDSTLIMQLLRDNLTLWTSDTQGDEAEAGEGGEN

Structure (SMILES) | IC50 [nM]
COC1(c2cc(-c3cc(NC(=O)c4ccnc(C(F)F)c4)ccc3C)cc(OCCO)n2)COC1 [Example 158, 2-(difluoromethyl)-N-(3-(2-(2-hydroxyethoxy)-6-(3-methoxyoxetan-3-yl)pyridin-4-yl)-4-methylphenyl)isonicotin-amide] | 0.4
COCCNc1nnc(-c2cc(NC(=O)c3ccnc(C(F)(F)F)c3)ccc2C)cc1C1CCOCC1 [Example 307, N-(3-(6-((2-methoxyethyl)amino)-5-(tetrahydro-2H-pyran-4-yl)pyridazin-3-yl)-4-methylphenyl)-2-(trifluoromethyl)isonicotinamide] | 0.08
CCOc1nnc(-c2cc(NC(=O)c3ccnc(C(F)(F)F)c3)cnc2C)cc1C1CCOCC1 [Example 236, N-(5-(6-ethoxy-5-(tetrahydro-2H-pyran-4-yl)pyridazin-3-yl)-6-methylpyridin-3-yl)-2-(trifluoromethyl) isonicotinamide] | 0.3
COCCOc1nnc(-c2cc(NC(=O)c3ccnc(C(F)(F)F)c3)ccc2C)cc1C1CCOCC1 [Example 315, N-(3-(6-(2-methoxyethoxy)-5-(tetrahydro-2H-pyran-4-yl)pyridazin-3-yl)-4-methylphenyl)-2-(trifluoromethyl) isonicotinamide] | 0.1
Cc1ccc(NC(=O)c2ccnc(C(C)(C)F)c2)cc1-c1cc(OCCO)nc(C2CCOCC2O)c1 (stereo not drawn) [Example 244, 2-(2-fluoropropan-2-yl)-N-(3-(2-(2-hydroxyethoxy)-6-(3-hydroxytetrahydro-2H-pyran-4-yl)pyridin-4-yl)-4-methylphenyl) isonicotinamide] | 3
CCOc1ncc(-c2cc(NC(=O)c3ccnc(C(C)(C)F)c3)cnc2C)cc1C1(O)CCOC1 (stereo not drawn) [Example 296, N-(6′-ethoxy-5′-(3-hydroxytetrahydro-furan-3-yl)-2-methyl-[3,3′-bipyridin]-5-yl)-2-(2-fluoropropan-2-yl)isonicotinamide] | 4
CCC(F)(F)c1cc(C(=O)Nc2cnc(C)c(-c3cc(NCCO)nc(C4CCOCC4)c3)c2)ccn1 [Example 182, 2-(1,1-difluoropropyl)-N-(2′-((2-hydroxyethyl)amino)-2-methyl-6′-(tetrahydro-2H-pyran-4-yl)-[3,4′-bipyridin]-5-yl) isonicotinamide] | 0.951
CCOc1ncc(-c2cc(NC(=O)c3cccc(C(F)(F)F)c3)cnc2C)cc1C1(CO)CCOC1 (stereo not drawn) [Example 290, N-(6′-ethoxy-5′-(3-(hydroxymethyl)tetrahydrofuran-3-yl)-2-methyl-[3,3′-bipyridin]-5-yl)-3-(trifluoromethyl) benzamide] | 2
Cc1ccc(NC(=O)c2cc(C(F)(F)F)c(Cl)cn2)cc1-c1cc(OC[C@H](O)CO)nc(C2CCOCC2)c1 [Example 282, (R)-5-chloro-N-(3-(2-(2,3-dihydroxypropoxy)-6-(tetrahydro-2H-pyran-4-yl)pyridin-4-yl)-4-methylphenyl)-4-(trifluoromethyl) picolinamide] | 0.3
CCOc1ncc(-c2cc(NC(=O)c3ccnc(C(C)(C)F)c3)cnc2C)cc1C1(CF)COC1 [Example 32, N-(6′-ethoxy-5′-(3-(fluoromethyl)oxetan-3-yl)-2-methyl-[3,3′-bipyridin]-5-yl)-2-(2-fluoropropan-2-yl)isonicotinamide] | 0.3
Cc1ncc(NC(=O)c2ccc(CN)c(C(F)(F)F)c2)cc1-c1cccc(C2(C)COC2)c1 [Example 8] | 1
Cc1ccc(NC(=O)c2ccnc(C(F)F)c2)cc1-c1cc(OCCO)nc(C2(F)COC2)c1 [Example 53] | 0.624
CCOc1ncc(-c2cc(NC(=O)c3ccnc(C(C)(C)F)c3)ccc2C)cc1C1(O)CCOC1 (stereo not drawn) [Example 295, N-(3-(6-ethoxy-5-(3-hydroxytetra-hydrofuran-3-yl)pyridin-3-yl)-4-methylphenyl)-2-(2-fluoropropan-2-yl)isonicotinamide] | 1
Cc1ccc(NC(=O)c2ccnc(C(F)(F)F)c2)cc1-c1cc(NCCO)nc(C2(O)CCOCC2)c1 [Example 287, N-(3-(2-((2-hydroxyethyl)amino)-6-(4-hydroxytetrahydro-2H-pyran-4-yl)pyridin-4-yl)-4-methylphenyl)-2-(trifluoromethyl)isonicotinamide] | 0.393
CCOc1nnc(-c2cc(NC(=O)c3ccnc(C(C)(F)F)c3)ccc2C)cc1C1CCOCC1 [Example 225, 2-(1,1-difluoroethyl)-N-(3-(6-ethoxy-5-(tetrahydro-2H-pyran-4-yl)pyridazin-3-yl)-4-methylphenyl) isonicotinamide] | 0.02
Cc1nc2cc(C3CCOCC3)cc(-c3cc(NC(=O)c4cc(C(F)(F)F)ccn4)ccc3C)c2[nH]1 [Example 224, N-(4-methyl-3-(2-methyl-5-(tetrahydro-2H-pyran-4-yl)-1H-benzo[d]imidazol-7-yl)penyl)-4-(trifluoromethyl) picolinamide] | 5
CCOc1nnc(-c2cc(NC(=O)c3cncc(C(F)(F)F)c3)ccc2C)cc1C1CCOCC1 [Example 231, N-(3-(6-ethoxy-5-(tetrahydro-2H-pyran-4-yl)pyridazin-3-yl)-4-methylphenyl)-5-(trifluoromethyl) nicotinamide] | 0.2
Cc1ncc(NC(=O)c2ccnc(C(C)(C)C#N)c2)cc1-c1cc(C2(O)COC2)cc(C2(F)COC2)c1 [Example 143, 2-(2-cyanopropan-2-yl)-N-(5-(3-(3-fluorooxetan-3-yl)-5-(3-hydroxyoxetan-3-yl)phenyl)-6-methylpyridin-3-yl)isonicotinamide] | 4.36

Now from value to compound:

IC50 [nM] | Structure (SMILES)
0.07 | Cc1ccc(NC(=O)c2ccnc(C(F)(F)F)c2)cc1-c1cc(C2CCOCC2)c(OC2CCOCC2)nn1 [Example 313, N-(4-methyl-3-(5-tetrahydro-2H-pyran-4-yl-6-((tetrahydro-2H-pyran-4-yl)oxy)pyridazin-3-yl)phenyl)-2-(trifluoromethyl)isonicotinamide]
0.5 | Cc1ccc(NC(=O)c2ccnc(C(F)(F)F)c2)cc1-c1cc2c(c(C3CCOCC3)c1)OC(C)(CO)C(=O)N2 (stereo not drawn) [Example 200, N-(3-(2-(hydroxymethyl)-2-methyl-3-oxo-8-(tetrahydro-2H-pyran-4-yl)-3,4-dihydro-2H-benzo[b][1,4]oxazin-6-yl)-4-methylphenyl)-2-(trifluoromethyl) isonicotinamide]
0.02 | Cc1ccc(NC(=O)c2cnnc(C(F)(F)F)c2)cc1-c1cc(OCCO)nc(C2CCOCC2)c1 [Example 271, N-(3-(2-(2-hydroxyethoxy)-6-(tetrahydro-2H-pyran-4-yl)pyridin-4-yl)-4-methylphenyl)-6-(trifluoromethyl) pyridazine-4-carboxamide]
0.09 | Cc1ccc(NC(=O)c2ccnc(C(F)(F)F)c2)cc1-c1cc(C2CCOCC2)nc(N2CCC(C)(N)CC2)c1 [Example 321, N-(3-(2-(4-amino-4-methylpiperidin-1-yl)-6-(tetrahydro-2H-pyran-4-yl)pyridin-4-yl)-4-methylphenyl)-2-(trifluoromethyl)isonicotinamide]
0.684 | Cc1ccc(NC(=O)c2ccnc(C(F)(F)F)c2)cc1-c1cc(C2CCOCC2)nc(N2CCC(O)CC2)c1 [Example 187, N-(3-(2-(4-hydroxypiperidin-1-yl)-6-(tetrahydro-2H-pyran-4-yl)pyridin-4-yl)-4-methylphenyl)-2-(trifluoromethyl) isonicotinamide]
0.7 | Cc1nc2cc(C3CCOCC3)cc(-c3cc(NC(=O)c4ccnc(C(F)(F)F)c4)ccc3C)c2[nH]1 [Example 220, N-(4-methyl-3-(2-methyl-5-(tetrahydro-2H-pyran-4-yl)-1H-benzo[d]imidazol-7-yl)phenyl)-2-(trifluoromethyl) isonicotinamide]
0.02 | Cc1ccc(NC(=O)c2ccnc(C(F)(F)CF)c2)cc1-c1cc(OCCO)nc(C2CCOCC2)c1 [Example 268, N-(3-(2-(2-hydroxyethoxy)-6-(tetrahydro-2H-pyran-4-yl)pyridin-4-yl)-4-methylphenyl)-2-(1,1,2-trifluoroethyl) isonicotinamide]
0.2 | Cc1ccc(NC(=O)c2ccnc(C3(C(F)(F)F)CC3)c2)cc1-c1cc(OC[C@H](O)CO)nc(C2CCOCC2)c1 [Example 275, (R)-N-(3-(2-(2,3-dihydroxypropoxy)-6-(tetrahydro-2H-pyran-4-yl)pyridin-4-yl)-4-methylphenyl)-2-(1-(trifluoromethyl)cyclopropyl) isonicotinamide]
0.05 | Cc1ccc(NC(=O)c2ccnc(C(F)(F)F)c2)cc1-c1cc(C2CCOCC2)c(NC[C@H](C)O)nn1 [Example 311, (S)-N-(3-(6-((2-hydroxypropyl)amino)-5-(tetrahydro-2H-pyran-4-yl)pyridazin-3-yl)-4-methylphenyl)-2-(trifluoromethyl) isonicotinamide]
